Source: patent US20030162694A1, “Novel treatment for pathological aggression” (priority 2002, published 2003)

Experiments:
[1] = test system: C57BL/6 mice; settings: chronic exposure (i.c.v.), low baseline aggressiveness (Lumley, Soc. Neurosci); cited from earlier work
[2] = test system: individually housed mice; settings: cited from earlier work
[3] = test system: SJL mice; assay: social interaction test with a non-aggressive conspecific in long-term individually housed hyperaggressive mice (isolation-induced aggression); assay type: in vivo; settings: for mice that attacked: vehicle 8 of 8
Text: It is well-established that housing in isolation for significant periods of time will enhance the natural tendency of cage resident mice to attack an “intruder” mouse placed in their home cage. The isolation model in mice is the most appropriate model for screening drugs for anti-aggression potential. We tested whether acute exposure to the NAALADase inhibitor [2-[(pentafluorophenylmethyl) hydroxyphosphinyl]methyl-pentanedioic acid, administered prior to a social interaction test, would inhibit aggressive behavior in SJL mice that had been individually housed for eight months. [2-[(pentafluorophenylmethyl) hydroxyphosphinyl]methyl-pentanedioic acid (30 mg/kg, i.p.) was administered 30 minutes prior to a social interaction test to pharmacologically naive male mice which had been selected and behaviorally shaped to be hyperaggressive, and had consistently shown markedly aggressive behaviors in prior interactions with intruder mice. Administration of [2-[(pentafluorophenylmethyl) hydroxyphosphinyl]methyl-pentanedioic acid (30 mg/kg, i.p.) inhibited aggression, indicated by greater latencies to display tail-rattling, attack and bite, and fewer tail-rattling responses to a non-aggressive conspecific, relative to vehicle. In addition, fewer mice that received [2-[(pentafluorophenylmethyl) hydroxyphosphinyl]methyl-pentanedioic acid (30 mg/kg) initiated attack, relative to those that received vehicle.
We hypothesized that similar to the effects of NMDA antagonists, NAALADase inhibition and therefore increased NAAG, would inhibit aggressiveness under conditions of high basal levels of aggressiveness. We administered the NAALADase inhibitor [2-[(pentafluorophenylmethyl) hydroxyphosphinyl]methyl-pentanedioic acid prior to a social interaction test in a novel cage and measured behavioral responses to a non-aggressive conspecific; a novel cage was used to lower the levels of aggressiveness. The paradigm used was adapted from File (reviewed in Crawley, 2000).
Principles of laboratory animal care (NIH publication No. 85-23, revised 1985) were followed. […] In addition, these mice had been used to socially defeat mice that were used as subjects in numerous other studies. These highly aggressive SJL had no previous drug exposure. At the end of 8 months of training, subjects weighed 30-37 grams and had attack latencies of less than 30 sec when exposed to an obx. During the social interaction test, two C57BL/6 male mice (30-33 g; Jackson Laboratories), which were screened for non-aggressiveness and unfamiliar to the subjects, were used as stimulus mice.
[2-[(pentafluorophenylmethyl) hydroxyphosphinyl]methyl-pentanedioic acid, MW 390.2 (3 mg/kg or 30 mg/kg in 50 mM Hepes in 0.9% saline; pH 7.2; Guilford Pharmaceuticals) or vehicle (50 mM Hepes in 0.9% saline; pH 7.2) was administered intraperitoneally (i.p.; 10 ml/kg) 30 min. prior to a 4 min. social interaction test. Subject mice were placed in a novel cage (48×27×20 cm) along with a non-aggressive male conspecific and tested under low illumination (red lights) during the dark phase of their cycle. Methods for various social interaction tests reviewed in Crawley et al. (2000). Tests were videotaped and behaviors were scored using a computer program (Hindsight, Scott Weiss, UK), by two observers blind to the treatment. Behavioral measures included 1) measures of aggressiveness or threat: attack, bite, chase or follow, grooming conspecific, tail rattling 2) measures of exploratory and locomotor activity: walking, rearing, digging, 3) measures of defensiveness: defensive posture (crouch, upright) and flight. Details on behavioral measurements may be found in Grant and McIntosh, 1963; Lumley et al., 2000; Crawley, 2000.
One-way analysis of variance was performed for each behavioral measure with drug dose as the independent factor. Data were further probed using Dunnet=s test.

[4] = test system: mice; settings: mice (McAllister, 1990); cited from earlier work

## O=C(O)CCC(CP(=O)(O)O)C(=O)O (stereo not shown) [2-PMPA, 2-(phosphonomethyl)-pentanedioic acid]
[1]
  aggressiveness: increase aggressiveness

## c1ccc(C2(N3CCCCC3)CCCCC2)cc1 [PCP, phencyclidine]
[2]; individually housed mice (Wilmot et al., 1987)
  aggressiveness: increased aggressiveness
[2]; individually housed mice
  number of mice that displayed attack: reduced the number of mice that displayed attack

## O=C(O)CCC(CP(=O)(O)Cc1c(F)c(F)c(F)c(F)c1F)C(=O)O (stereo not shown) [[2-[(pentafluorophenylmethyl) hydroxyphosphinyl]methyl-pentanedioic acid]
[3]; 3 mg/kg
  mice that attacked: 7 of 10
[3]; 30 mg/kg i.p., 30 min before 4 min test, relative to vehicle, F (2, 26)=2.36
  latency to attack: increased latencies
[3]; 30 mg/kg i.p., 30 min before 4 min test, relative to vehicle, F (2, 26)=2.82
  latency to bite: increased latencies
[3]; 30 mg/kg i.p., 30 min before 4 min test, relative to vehicle, F (2, 26)=7.41
  latency to display tail-rattling: increased latencies
[3]; 30 mg/kg, relative to vehicle, F (2, 26)=3.66
  number of tail-rattling responses: tended to display fewer tail-rattling responses
[3]; 30 mg/kg
  mice that attacked: 4 of 9
[3]; 30 mg/kg, vehicle 100%
  percent of mice that attacked the conspecific: 44%
[3]; 3 or 30 mg/kg i.p., few mice displayed any
  defensive responses: no effect
[3]; in mice displaying the behavior, 3 or 30 mg/kg i.p., F (2,18)=0.11
  number of attacks: no effect
[3]; in mice displaying the behavior, 3 or 30 mg/kg i.p., F (2, 26)=0.31
  number of bites: no effect
[3]; relative to vehicle-treated mice, not significant
  number of attacks in the 4 of 9 treated mice that attacked: tended to have more attacks
[3]; relative to vehicle, dose not stated
  tail rattling responses as stated in the discussion: more tail rattling responses than vehicle

## C[C@]12N[C@H](Cc3ccccc31)c1ccccc12 [dizocilpine]
[4]
  aggression: increased aggression
